Patent US20020032214A1, “Pharmaceutical composition comprising a compound having anti-xa activity and a platelet aggregation antagonist compound” (priority 1996, published 2002)

Assay: Template bleeding time in the canine model of unstable angina
Assay type: in vivo, Mongrel dogs
Conditions: high-dose of the platelet aggregation antagonist compound, i.v., dogs
Protocol: Mongrel dogs of either sex (15-21 kg) are anesthetized with sodium pentobarbital (30 mg/kg, i.v., with supplements given as needed), intubated, and ventilated using a Harvard respirator (Harvard Apparatus. S. Natick, Mass.). A tri-lumen catheter (SAFEDWELLplus, Becton Dickinson, Sandy, Utah) is placed in the right femoral vein for the administration of test agents and supplemental anesthesia. The right femoral artery is cannulated for measurement of arterial blood pressure and for obtaining blood samples.
Thirty dogs are assigned to one of six adjunctive treatment groups. […]
After consistent CFRs are established for at least 20 minutes, compounds are administered as described above and blood flow is monitored during the one hour infusion period. […] Mean arterial blood pressure, heart rate and EKG are recorded for the duration of the protocol (Grass polygraph, Model 7D, Grass Instruments, Mass.).
Template bleeding time measurements are obtained at the same time points as the blood samples, as mentioned previously. Template bleeding time is measured after a uniform incision is made on the mucous membrane of the inner upper lip with a Surgicutt® automated incision device (ITC, Edison, N.J.). […] Template bleeding time is measured from the moment of the incision until the blood no longer stained the blotting paper. […]

increase in template bleeding time: > 5 fold
SMILES: CCCCS(=O)(=O)N[C@@H](Cc1ccc(OCCCCC2CCNCC2)cc1)C(=O)O [BSPBPA, N-(n-butylsulfonyl)-4-(piperidin-4-ylbutyloxy)-L-phenylalanine]
